Measurements published in patent US5840895A, “Triazole intermediates for tricyclic benzazepine and benzothiazepine derivatives” (Meiji Seika Kabushiki Kaisha, priority 1993, dated 1998).
Like-named read-outs stand apart in the source and are kept apart here.

Key:
[1] = system: allergic edema reaction at paw; experiment: Test for suppressing immediate and delayed allergic reaction (allergic edema reaction at paw, DNP-OA); format: in vivo, rat (male Wister); conditions: Rattus norvegicus; for inhibition in vivo at 10 mg/kg: oral
Method: Test for suppressing immediate and delayed allergic reaction
1×10^10 of inviable pertussis and 1 mg of dinitrophenylated ovalbumin (DNP-OA) were administered subcutaneously to the three paws except the right hind paw of male Wister rats having a body weight of 200 g. After 10 days, 5 μg of DNP-OA was further administered subcutaneously to the right hind paw of the animals to induce the allergic edema reaction at paw. The allergy suppressing effect of the test compounds was examined with reference to the edema volumes after 30 minutes and 8 hours of the induction of the allergic reaction as the immediate and delayed allergic reactions, respectively.
[…] On the other hand, only a solution of 0.25% Tween 80 was orally administered to rats as the untreated control, and 100 mg/kg of sodium chromoglycate subcutaneously or orally to rats as the positive control.
The rate of suppressing the allergic edema reaction at paw was calculated from the following equation.
Suppression rate of the allergic edema reaction at paw
A is an average edema volume in the control, and
B is an average edema volume in the drug treated group.

[2] = cited from earlier work
[3] = system: histamine releasing reaction; experiment: Test of suppressing histamine releasing reaction (abdominal cavity cells of rats sensitised with anti-DNP-As serum, stimulated with DNP-As); format: cell-based, rat (male Wister); conditions: Rattus norvegicus; cells 10^5 cell/ml stimulated with 1 μg/ml DNP-As; test compounds 10^-5 -10^-10 M; read-out: IC50 (suppression of histamine releasing reaction)
Method: Test of suppressing histamine releasing reaction
Rat anti-dinitrophenylated ascaris protein (referred to hereinafter as DNP-As) serum was prepared according to the method described by Tada, T. and Okumura, K., J. Immun., 106 (4), 1971. Briefly, 1×10^10 of inviable pertussis and 1 mg of DNP-As were administered subcutaneously to the paw of female Brown Norway rats having a body weight of 200 g. After five days, 0.5 mg of DNP-As was further administered intramuscularly to the rear of the animals. Blood samples were taken after three days of the administration to prepare anti-serum.
A 1 ml portion of the serum diluted four times with physiological saline was administered intraperitoneally to male Wister rats. After two days, abdominal cavity was rinsed with phosphate buffer to recover the cells within the abdominal cavity. After the cell concentration was adjusted to 10^5 cell/ml, the cells were stimulated with 1 μg/ml of DNP-As. The amount of histamine released into the supernatant was measured according to the method described by Shore, P. A., Burkhalter, A. H. and Chon, V. H. Jr., J. Pharm. Exp. Ther., 127, 182-186 (1959).
A dose for suppressing 50% of the histamine releasing reaction, i.e., IC50 value, was calculated from the amounts of histamine released in the group treated with the test compounds in the molar concentrations (M) of 10^-5 -10^-10 and in the control group. The IC50 value as the suppressing effect of the drugs is shown in Table 6 with the IC50 value of sodium chromoglycic acid selected as the control compound.

[4] = 0.5 h, edema volume 30 minutes after induction, read-out: Suppressing Rate, Immediate Reaction
[5] = edema volume 8 hours after induction, read-out: Suppressing Rate, Slow reaction

Compound | inhibition in vivo at 100 mg/kg ([1]; po, 0.5 h, orally, 30 minutes after induction (positive control), read-out: Suppressing Rate, Immediate Reaction) | inhibition in vivo at 100 mg/kg ([1]; po, orally, 8 hours after induction (positive control), read-out: Suppressing Rate, Slow reaction) | inhibition in vivo at 100 mg/kg ([1]; sc, 0.5 h, subcutaneously, 30 minutes after induction (positive control), read-out: Suppressing Rate, Immediate Reaction) | inhibition in vivo at 100 mg/kg ([1]; sc, subcutaneously, 8 hours after induction (positive control), read-out: Suppressing Rate, Slow reaction) | effectiveness on oral administration [2] | inhibition in vivo at 10 mg/kg [1, 4] | inhibition in vivo at 10 mg/kg [1, 5] | IC50 [3]
O=C(O)c1cc(=O)c2c(OCC(O)COc3cccc4oc(C(=O)O)cc(=O)c34)cccc2o1 [DSCG, sodium chromoglycate, reference compound] | 16% | 20% | 75% | 53% | no effectiveness |  |  | 
COc1cc2[nH]c(=O)c3nn[nH]c3c(=O)c2cc1OC [Example 43, 7,8-dimethoxy-4(5H),10-dioxo-1H-1,2,3-triazolo[4,5-c][l]benzazepine] |  |  |  |  |  | 59% | 53% | 1.4 nM
O=c1[nH]c2cc(CNS(=O)(=O)c3ccccc3)ccc2c(=O)c2[nH]nnc12 [Example 69, 7-(N-benzenesulfonylaminomethyl)-4(5H),10-dioxo-1H-1,2,3-triazolo [4,5-c][l]benzazepine] |  |  |  |  |  | 50% | 41% | 3.5 nM
COc1ccc(C(=O)COc2ccc3[nH]c(=O)c4nn[nH]c4c(=O)c3c2)cc1 [Example 84, 8-(4-methoxyphenacyloxy)-4(5H),10-dioxo-1H-1,2,3-triazolo[4,5-c][l]benzazepine] |  |  |  |  |  | 48% | 40% | 3.9 nM
